Laboratory results published in patent publication US20160145257A1, “SUBSTITUTED XANTHINES AND METHODS OF USE THEREOF” (Hydra Biosciences, Inc., priority 2013, published 2016).

Target: T1, hTRPC5 (Homo sapiens, UniProt Q9UL62)
T1 construct: expressed in transfected cells; host or cells: HEK293 TREx cells with inducible TRPC5 expression
T1 sequence (Q9UL62 1-973): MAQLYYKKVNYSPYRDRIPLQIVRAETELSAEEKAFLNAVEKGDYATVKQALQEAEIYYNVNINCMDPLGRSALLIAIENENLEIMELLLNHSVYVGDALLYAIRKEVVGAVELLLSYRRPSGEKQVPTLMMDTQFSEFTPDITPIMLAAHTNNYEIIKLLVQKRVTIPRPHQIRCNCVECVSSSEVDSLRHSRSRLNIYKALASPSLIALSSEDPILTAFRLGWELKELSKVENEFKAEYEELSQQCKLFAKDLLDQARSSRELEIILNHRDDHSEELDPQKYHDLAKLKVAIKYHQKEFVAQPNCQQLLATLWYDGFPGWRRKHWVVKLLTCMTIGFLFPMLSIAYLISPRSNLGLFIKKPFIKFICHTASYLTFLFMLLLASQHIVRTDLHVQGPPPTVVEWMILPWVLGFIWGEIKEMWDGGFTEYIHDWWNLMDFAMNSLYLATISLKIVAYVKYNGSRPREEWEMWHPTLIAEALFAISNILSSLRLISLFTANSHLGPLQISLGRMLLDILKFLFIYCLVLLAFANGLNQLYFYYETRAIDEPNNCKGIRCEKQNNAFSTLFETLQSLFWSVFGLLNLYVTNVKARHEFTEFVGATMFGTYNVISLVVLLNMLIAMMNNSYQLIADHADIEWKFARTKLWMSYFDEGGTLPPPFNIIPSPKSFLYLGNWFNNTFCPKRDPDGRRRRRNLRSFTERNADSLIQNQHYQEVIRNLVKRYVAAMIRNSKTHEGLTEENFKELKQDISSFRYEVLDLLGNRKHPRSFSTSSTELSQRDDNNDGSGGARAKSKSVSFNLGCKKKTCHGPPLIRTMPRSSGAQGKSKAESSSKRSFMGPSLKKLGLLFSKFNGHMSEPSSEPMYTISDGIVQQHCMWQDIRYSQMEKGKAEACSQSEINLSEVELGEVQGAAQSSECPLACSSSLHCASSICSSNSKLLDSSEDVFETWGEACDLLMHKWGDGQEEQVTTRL
Assay: Whole-cell patch clamp, block of LaCl3-activated TRPC5 inward current
Assay type: cell-based
Conditions: TRPC5-expressing HEK293 TREx cells, 80 μM LaCl3, inward current, IC50 estimated from 5 μM and 500 nM, read-out: hTRPC5 Patch La3+ Inwd (nM) (All Batches)
Method: In certain embodiments, exemplary compounds of Formula I and Formula II include the compounds described in Table 1 and in the Examples. A compound described herein may be tested for its ability to block both inward and outward currents through the TRPC5 channel, e.g., by an assay as described in Example 1. For example, IC50 of a compound of Formula I or Formula II was estimated by testing the compound at 5 μM and 500 nM. […] IC50 for a compound of Formula I or Formula II between 500 nM and 5 μM was similarly estimated. As shown, “A” refers to an IC50<100 nM. “B” refers to an IC50 between 100 nM and 500 nM. “C” refers to an IC50 between 500 nM and 1000 nM. “D” refers to an IC50 between 1 μM and 2 μM. “E” refers to an IC50 between 2 μM and 10 μM. “F” refers to […]. “ND” refers to compounds wherein the IC50 was not determined.
Patch clamp experiments permit the detection of currents through the TRPC5 channel in the cell line described above. In normal whole-cell patch clamp recordings, a glass electrode is brought into contact with a single cell and a high-resistance (gigaohm) seal is established with the cell membrane. The membrane is then ruptured to achieve the whole-cell configuration, permitting control of the voltage of the cell membrane and measurement of currents flowing across the membrane using the amplifier attached to the electrode and resulting in the replacement of cytoplasm with the pipette solution. A perfusion system permits control of the extracellular solution, including the addition of blockers and activators of the current. The current can be activated by including 1.4 μM free Ca^2+ in the pipette (intracellular) solution, and 80 μM LaCl3 in the extracellular solution.
TRPC5 cells were induced 20-48 hours, removed from growth plates, and replated at low density (to attain good single-cell physical separation) on glass coverslips for measurement. In some cases, cells were grown in low density overnight on glass coverslips. Patch clamp recordings were made in the whole-cell mode with a holding potential of −40 mV. Every 5 seconds, a voltage ramp was applied from −120 to +100 mV, 400 ms in duration. Currents elicited were quantified at −80 mV and +80 mV. The internal solution consisted of 140 mM cesium aspartate, 10 mM HEDTA, 2 mM CaCl2, 2.27 mM MgCl2 and 10 mM HEPES, pH 7.2, with 1,400 nM calculated free Ca^2+. The external solution consisted of 150 mM NaCl, 4.5 mM KCl, 1 mM MgCl2, 2 mM CaCl2, 10 mM HEPES, 10 mM glucose, 1 mM EGTA, pH 7.4. Upon addition of LaCl3, TRPC5 current was induced only in TRPC5-expressing cells and not in parental HEK293 TREx cells. Removal of the LaCl3 stimulus causes most of the current to go away. Potential blockers were tested for ability to block both inward and outward currents in the continued presence of LaCl3.
IC50 of a compound of Formula I or Formula II was estimated by testing the compound at 5 μM and 500 nM. […] IC50 for a compound of Formula I or Formula II between 500 nM and 5 μM was similarly estimated.

IC50 [nM]	SMILES
< 100	CCc1coc(CSc2nc3c(c(=O)n(C)c(=O)n3C)n2Cc2ccc(Br)cc2)n1 [Compound 157, 7-(4-bromobenzyl)-8-((4-ethyloxazol-2-yl)methylthio)-1,3-dimethyl-1H-purine-2,6(3H,7H)-dione]
100 to 500	CCc1coc(CSc2nc3c(c(=O)n(C)c(=O)n3C)n2Cc2ccc(C)cc2)n1 [Compound 133, 8-((4-ethyloxazol-2-yl)methylthio)-1,3-dimethyl-7-(4-methylbenzyl)-1H-purine-2,6(3H,7H)-dione]
100 to 500	CCc1coc(C(C)(C)Sc2nc3c(c(=O)n(C)c(=O)n3C)n2Cc2cccc(Br)c2)n1 [Compound 100, 7-(3-bromobenzyl)-8-(2-(4-ethyloxazol-2-yl)propan-2-ylthio)-1,3-dimethyl-1H-purine-2,6(3H,7H)-dione]
2000 to 10000	CCCOCCc1nc2c(c(=O)n(C)c(=O)n2C)n1Cc1cccc(C#N)c1 [Compound 119]
2000 to 10000	CCOC(=O)C(C)(C)CCc1nc2c(c(=O)n(C)c(=O)n2C)n1Cc1cccc(Br)c1 [Compound 83]
2000 to 10000	CCOCC[S+]([O-])c1nc2c(c(=O)n(C)c(=O)n2C)n1Cc1cccc(Br)c1 (stereo not shown) [Compound 15]
100 to 500	CCc1coc(CSc2nc3c(c(=O)n(C)c(=O)n3C)n2Cc2ccc(F)cc2)n1 [Compound 156, 8-((4-ethyloxazol-2-yl)methylthio)-7-(4-fluorobenzyl)-1,3-dimethyl-1H-purine-2,6(3H,7H)-dione]
500 to 1000	CCc1coc(CSc2nc3c(c(=O)n(C)c(=O)n3C)n2Cc2cccc(OC)c2)n1 [Compound 130, 8-((4-ethyloxazol-2-yl)methylthio)-7-(3-methoxybenzyl)-1,3-dimethyl-1H-purine-2,6(3H,7H)-dione]
2000 to 10000	Cn1c(=O)c2c(nc(OCCCCCO)n2Cc2ccc(Cl)cc2)n(C)c1=O [Compound 217, 7-(4-Chlorobenzyl)-8-((5-hydroxypentyl)oxy)-1,3-dimethyl-1H-purine-2,6(3H,7H)-dione]
2000 to 10000	CCCOCCc1nc2c(c(=O)n(C)c(=O)n2C)n1Cc1cccc(C(C)=O)c1 [Compound 159]
2000 to 10000	CC1CCN(Cc2nc3c(c(=O)n(C)c(=O)n3C)n2Cc2cccc(Br)c2)CC1 [Compound 44]
100 to 500	CCOCCSc1nc2c(c(=O)n(C)c(=O)n2C)n1Cc1cccc(Br)c1 [Compound 6, 7-(3-bromobenzyl)-8-(2-ethoxyethylthio)-1,3-dimethyl-1H-purine-2,6(3H,7H)-dione]
2000 to 10000	CN(C)C(=O)c1cccc(Oc2nc3c(c(=O)n(C)c(=O)n3C)n2Cc2cccc(Br)c2)c1 [Compound 127]
500 to 1000	CCCOCCc1nc2c(c(=O)n(C)c(=O)n2C)n1Cc1cccc(OC(F)(F)F)c1 [Compound 88]
2000 to 10000	CN(C)Cc1cccc(Cn2c(Oc3cccc(OC(F)(F)F)c3)nc3c2c(=O)n(C)c(=O)n3C)c1 [Compound 183]
2000 to 10000	CCCOCCc1nc2c(c(=O)n(C)c(=O)n2C)n1Cc1ccc(CO)cc1 [Compound 151]

Further lines, the compound ahead of its results:

SMILES	IC50 [nM]
Cc1coc(-c2cccc(Oc3nc4c(c(=O)n(C)c(=O)n4C)n3Cc3cccc(Br)c3)c2)n1 [Compound 103, 7-(3-bromobenzyl)-1,3-dimethyl-8-(3-(4-methyloxazol-2-yl)phenoxy)-1H-purine-2,6(3H,7H)-dione]	2000 to 10000
Cn1c(=O)c2c(nc(Oc3cccc(OC(F)(F)F)c3)n2Cc2ccc(Cl)c(F)c2)n(C)c1=O [Compound 198, 7-(4-chloro-3-fluorobenzyl)-1,3-dimethyl-8-(3-(trifluoromethoxy)phenoxy)-1H-purine-2,6(3H,7H)-dione]	< 100
CCc1coc(CSc2nc3c(c(=O)n(C)c(=O)n3C)n2Cc2cccc(F)c2)n1 [Compound 147, 8-((4-ethyloxazol-2-yl)methylthio)-7-(3-fluorobenzyl)-1,3-dimethyl-1H-purine-2,6(3H,7H)-dione]	100 to 500
CCOC(=O)CCc1nc2c(c(=O)n(C)c(=O)n2C)n1Cc1cccc(Br)c1 [Compound 37, ethyl 3-(7-(3-bromobenzyl)-1,3-dimethyl-2,6-dioxo-2,3,6,7-tetrahydro-1H-purin-8-yl)propanoate]	2000 to 10000
CCC(=O)CSc1nc2c(c(=O)n(C)c(=O)n2C)n1Cc1cccc(Br)c1 [Compound 1, 7-(3-bromobenzyl)-1,3-dimethyl-8-(2-oxobutylthio)-1H-purine-2,6(3H,7H)-dione]	500 to 1000
CCc1coc(CSc2nc3c(c(=O)n(C)c(=O)n3C)n2Cc2cccc(C)c2)n1 [Compound 132, 8-((4-ethyloxazol-2-yl)methylthio)-1,3-dimethyl-7-(3-methylbenzyl)-1H-purine-2,6(3H,7H)-dione]	100 to 500
Cn1c(=O)c2c(nc(Oc3cncc(C(F)(F)F)c3)n2Cc2ccc(Cl)cc2)n(C)c1=O [Compound 184, 7-(4-chlorobenzyl)-1,3-dimethyl-8-(5-(trifluoromethyl)pyridin-3-yloxy)-1H-purine-2,6(3H,7H)-dione]	1000 to 2000
CC(Cc1nc2c(c(=O)n(C)c(=O)n2C)n1Cc1cccc(Br)c1)C(=O)O (stereo not shown) [Compound 117, 3-(7-(3-Bromobenzyl)-1,3-dimethyl-2,6-dioxo-2,3,6,7-tetrahydro-1H-purin-8-yl)-2-methylpropanoic acid]	2000 to 10000
CCCOCCc1nc2c(c(=O)n(C)c(=O)n2C)n1Cc1ccc(OC(F)(F)F)cc1 [Compound 109]	1000 to 2000
CCCOCCc1nc2c(c(=O)n(C)c(=O)n2C)n1Cc1ccc(-c2ccccc2)cc1 [Compound 129, 7-(biphenyl-4-ylmethyl)-1,3-dimethyl-8-(2-propoxyethyl)-1H-purine-2,6(3H,7H)-dione]	500 to 1000
CCCOCCc1nc2c(c(=O)n(C)c(=O)n2C)n1Cc1ccc(C(N)=O)cc1 [Compound 149]	2000 to 10000
CCCOCCc1nc2c(c(=O)n(C)c(=O)n2C)n1Cc1cccc(C)c1 [Compound 90]	1000 to 2000
Cn1c(=O)c2c(nc(Oc3cccc(F)c3)n2Cc2cccc(Br)c2)n(C)c1=O [Compound 111, 7-(3-bromobenzyl)-8-(3-fluorophenoxy)-1,3-dimethyl-1H-purine-2,6(3H,7H)-dione]	1000 to 2000
CCOC(=O)CCC(C)(C)c1nc2c(c(=O)n(C)c(=O)n2C)n1Cc1cccc(Br)c1 [Compound 84]	1000 to 2000
Cn1c(=O)c2c(nc(CCc3ccccc3)n2Cc2cccc(Br)c2)n(C)c1=O [Compound 33, 7-(3-bromobenzyl)-1,3-dimethyl-8-phenethyl-1H-purine-2,6(3H,7H)-dione]	500 to 1000
